# Test results published in patent publication US20070037752A1, “Novel alanyl-amino peptidase inhibitors for functionally influencing different cells and treating immunological, inflammatory, neuronal, and other diseases” (priority 2003, published 2007).
# Read-outs that look alike come from different tables or passages of the source.
# Molecular target: alanyl aminopeptidases (APN) (Homo sapiens, UniProt P15144)
# Experiment: Inhibition of alanyl aminopeptidase enzymatic activity, fluorogenic substrate (Ala)2-rhodamine 110
# Type: biochemical
# Protocol: The inhibition characteristics measured are referred to as IC-50 values or ID50 values (the latter marked with “*”) for said enzyme. The enzymatic activity was determined by means of the fluorogenic substrate/product (Ala)2-rhodamine 110.
# [1] = Table 3, starred values = ID50, read-out: ID50 APN (values marked with *)
# [2] = Table 4, unstarred values, read-out: IC50APN
# [3] = Table 9, unstarred values, read-out: IC50APN
# [4] = Table 3, unstarred values, read-out: IC50APN
# [5] = Table 4, starred values = ID50, read-out: ID50 APN (values marked with *)
# [6] = Table 8, unstarred values, read-out: IC50APN
# [7] = Table 9, starred values = ID50, read-out: ID50 APN (values marked with *)
# Sequence of alanyl aminopeptidases (APN) (P15144 whole entry, species assumed): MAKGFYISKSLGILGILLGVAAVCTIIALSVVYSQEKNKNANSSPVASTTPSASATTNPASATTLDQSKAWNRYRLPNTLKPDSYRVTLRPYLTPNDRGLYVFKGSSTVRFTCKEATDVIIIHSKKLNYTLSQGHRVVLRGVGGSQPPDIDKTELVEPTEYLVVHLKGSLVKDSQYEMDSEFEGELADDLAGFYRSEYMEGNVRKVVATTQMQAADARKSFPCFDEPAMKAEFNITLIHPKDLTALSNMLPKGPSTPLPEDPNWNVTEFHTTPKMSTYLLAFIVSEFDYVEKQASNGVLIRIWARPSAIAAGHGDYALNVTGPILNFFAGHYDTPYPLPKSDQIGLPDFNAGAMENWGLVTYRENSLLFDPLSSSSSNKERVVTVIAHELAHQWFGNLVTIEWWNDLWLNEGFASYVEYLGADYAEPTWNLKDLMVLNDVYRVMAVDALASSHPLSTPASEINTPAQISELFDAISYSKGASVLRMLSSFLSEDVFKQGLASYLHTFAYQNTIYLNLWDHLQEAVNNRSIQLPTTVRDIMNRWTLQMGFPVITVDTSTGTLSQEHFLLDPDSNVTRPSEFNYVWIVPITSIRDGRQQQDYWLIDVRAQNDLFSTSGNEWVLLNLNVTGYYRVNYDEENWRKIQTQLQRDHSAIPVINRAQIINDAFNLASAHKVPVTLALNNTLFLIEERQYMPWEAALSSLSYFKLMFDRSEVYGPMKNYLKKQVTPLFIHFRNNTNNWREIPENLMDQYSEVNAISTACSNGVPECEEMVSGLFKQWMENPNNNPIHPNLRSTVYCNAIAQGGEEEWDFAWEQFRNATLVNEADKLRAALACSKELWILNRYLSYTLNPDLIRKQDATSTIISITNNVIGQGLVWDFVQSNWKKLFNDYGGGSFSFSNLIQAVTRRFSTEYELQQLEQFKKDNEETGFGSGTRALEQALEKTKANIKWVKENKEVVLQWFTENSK
smiles,measurement,setting,value
Nc1ccc2c(c1)C/C(=C\c1ccco1)C2=O [A3.008],IC50,[1],2.6 µM
Cc1ccc(/C=N/NC(=O)c2cc(O)cc(O)c2)o1 [A4.083],IC50,[2],26.4 µM
Cc1ccc(C(=O)N/C(=C\c2ccco2)C(=O)N2CCSCC2)cc1C [A9.109],IC50,[3],68.9 µM
CCOC(=O)c1cc(Br)ccc1-c1ccc(/C=C2\C(=O)N=C(O)C(C#N)=C2C)o1 [A3.260],IC50,[4],49.9 µM
Cc1ccc(C)n1-c1cccc(C(=O)N/N=C/c2cc(Br)c(O)c(Br)c2)c1 [A3.150],IC50,[4],24.9 µM
CCOC(=O)c1c(C)oc2c1c1c(c3ccccc32)OCN(C2CCS(=O)(=O)C2)C1 (stereo not shown) [A6.010],IC50,"Table 6, read-out: IC50APN",22.3 µM
CCCOC(=O)c1cc(-c2ccc(/C=C3\C(=O)N(CCO)C(=O)C(C#N)=C3C)o2)ccc1Cl [A9.101],IC50,[3],54 µM
O=C(CNC(=O)c1ccccc1O)N/N=C/c1ccco1 [A3.318],IC50,[1],98.8 µM
COc1ccc(CSCC(=O)N/N=C/c2ccco2)cc1 [A4.157],IC50,[5],66 µM
CC(C)C1N=C(Cc2cccnc2)N(CCCN2CCCC2=O)C1C(=O)NCc1ccccc1 (stereo not shown) [A12.055],IC50,"Table 12, read-out: IC50APN",34 µM
CCOC(=O)C(NC(=O)c1cccc(Cl)c1)(Nc1ccc(OC)cc1OC)C(F)(F)F (stereo not shown) [A12.040],IC50,"Table 12, read-out: IC50APN",21.7 µM
CCc1ccc(-c2cc(C(=O)N/N=C/c3c(C)nn(-c4ccccc4)c3C)[nH]n2)cc1 [A4.027],IC50,[2],13.6 µM
CCOC(=O)C1=C(N)NC2=C(CCCC2)C12C(=O)Nc1ccccc12 (stereo not shown) [A9.088],IC50,[3],33.6 µM
O=C(C1c2ccccc2Oc2ccccc21)n1cc(Cl)cn1 [A3.179],IC50,[4],29.1 µM
CN(/N=C/c1sc(=O)[nH]c1Cl)c1ccccc1 [A8.014],IC50,[6],14.4 µM
N/C(=N\N=C\c1ccco1)c1nonc1N [A3.068],IC50,[4],14.6 µM
O=C(/C=C/c1ccco1)NCCCN1CCOCC1 [A3.339],IC50,[1],208 µM
CC(/C=C/c1ccco1)=N\NC(=O)COc1ccc(C(C)(C)C)cc1 [A4.145],IC50,[2],53.4 µM
CSCCC(Nc1ncnc2c1oc1ccccc12)C(=O)O (stereo not shown) [A12.060],IC50,"Table 12, read-out: IC50APN",48.4 µM
C/C(Cn1nnc([N+](=O)[O-])n1)=N/NC(=O)COc1ccccc1[N+](=O)[O-] [A8.002],IC50,[6],3.4 µM
CCOc1cc(/C=N/NC(=O)CNC(=O)c2cccc(Cl)c2)ccc1OC(=O)c1cccs1 [A3.051],IC50,[4],12.2 µM
CCCCOC(=O)c1cccc(-c2ccc(/C=C3\C(=O)N(CCO)C(=O)C(C#N)=C3C)o2)c1 [A9.021],IC50,[7],10.2 µM
CCc1cccc(CC)c1NC(=S)N/N=C1\C(=O)N(CN2CC(C)CC(C)C2)c2ccccc21 (stereo not shown) [A8.004],IC50,[6],6.7 µM
O=C(O)C1N=NC(c2ccc(F)cc2)=CN1O (stereo not shown) [A1.011],IC50,"Table 1, unstarred values, read-out: IC50APN",17.1 µM
O=C(Cn1cnc2ccccc21)N/N=C/c1ccco1 [A4.128],IC50,[2],43.3 µM
Cc1occc1C(=O)N/N=C/C=C\c1ccco1 [A4.098],IC50,[2],31 µM
Cc1cccc(C(=O)Nc2ccc(C(=O)N/N=C/c3ccc(C)o3)cc2)c1 [A3.106],IC50,[4],20.2 µM
COc1ccc(Cl)cc1C(=O)N/C(=C/c1ccco1)C(=O)N1CC2CC(C1)c1cccc(=O)n1C2 (stereo not shown) [A9.015],IC50,[3],8.1 µM
CC(=O)Nc1cccc(C(=O)N/N=C/c2ccc(C)o2)c1 [A4.154],IC50,[5],63.1 µM
O=C(CCCOc1ccc(Cl)cc1Cl)N/N=C/c1ccco1 [A3.158],IC50,[4],26.3 µM
CO/N=C(\c1nonc1N)N1CCN(c2ccc([N+](=O)[O-])cc2Cl)CC1 [A9.045],IC50,[3],19.2 µM
COC(=O)C(NC(=O)c1ccccc1)(Nc1sc2c(c1C#N)CCC(C(C)(C)C)C2)C(F)(F)F (stereo not shown) [A3.239],IC50,[4],43.6 µM
CN(C)c1ccc(C2C3C(=O)N(c4ccccc4)C(=O)C3ON2c2ccc(Cl)cc2)cc1 (stereo not shown) [A3.104],IC50,[4],20 µM
Cc1ccc(/C=N/NC2=NC(=O)CS2)o1 [A4.082],IC50,[2],26.4 µM
O=C(N/N=C/c1cc([N+](=O)[O-])ccc1O)c1ccc(Cl)cc1 [A4.078],IC50,[2],25.7 µM
O=C(N/N=C/c1ccco1)c1cc(-c2ccc(F)cc2)n[nH]1 [A3.066],IC50,[4],14.4 µM
Cc1ccc(/C=N/NC(=O)c2ccc(O)cc2)o1 [A3.142],IC50,[4],23.4 µM
CCOC(=O)c1ccc(-c2ccc(/C=C3\C(=O)N(CCO)C(=O)C(C#N)=C3C)o2)cc1 [A13.002],IC50,"Table 13, read-out: IC50APN",2.7 µM
CC(=O)Nc1ccc(C(=O)N/N=C/c2ccco2)cc1 [A3.230],IC50,[4],38.4 µM
Cc1ccc(/C=N/NC(=O)c2cccc(CC(=O)c3ccccc3C)c2)o1 [A4.047],IC50,[2],18.9 µM
COc1cc(Br)ccc1OCC(=O)N/N=C(C)/C=C/c1ccco1 [A4.116],IC50,[2],36.3 µM
CC(C)N1CCN(Cc2ccccc2[N+](=O)[O-])CC1 [A9.128],IC50,[7],252 µM
CC1SC(N/N=C/c2ccco2)=NC1=O (stereo not shown) [A3.169],IC50,[4],27.7 µM
CCOC(=O)C1CCN(C(=O)/C(=C/c2ccco2)NC(=O)c2ccc(C)c(C)c2)CC1 [A3.209],IC50,[4],34.5 µM
CCOC(=O)C1C(C)C2C3C(=O)N(c4cccc5ccccc45)C(=O)C3C1(C)C1C(=O)N(c3cccc4ccccc34)C(=O)C21 (stereo not shown) [A3.027],IC50,[4],7.4 µM
O=C(CCC(=O)Nc1cccc(Cl)c1)N/N=C/c1ccco1 [A4.106],IC50,[2],34 µM
